According to patent US20120082626A1, “USE OF R-BAMBUTEROL AS INHALED MEDICAMENT AND COMBINATION THERAPIES FOR TREATMENT OF RESPIRATORY DISORDERS” (priority 2009, published 2012):
Marks after values point to notes of the source that are not given here.

How the values were obtained:
[1] = test system: histamine evoked asthma in conscious guinea-pigs; experiment: Protection against histamine-evoked asthma by inhaled drug in conscious guinea pigs; format: in vivo, guinea pigs (Dunkin-Hartley strain); conditions: for Latency: no collapse over 360 sec recorded as 360
Protocol: (§1) Test methods: Guinea pigs (Dunkin-Hartley strain, 200±30 g) were fasted overnight but given water ad libidum. The animals were restrained individually in a glass chamber and exposed to aerosol histamine generated by a nebulizer from a 0.2% aqueous solution of histamine under constant pressure at dose of 0.5 ml/min for a period of 15 sec. The animal was removed from the chamber, and its behavior was monitored. Assign of collapse and the latency time from exposure to collapse were recorded. Only the animals with latency time less than 120 sec, as an indication of sensitive to histamine, were chosen for later experiments. The animals chosen were allowed to recover completely by resting for 24 hours before experiments. R-bambuterol and racemic bambuterol hydrochloride were dissolved in saline and nublized in a nebulizer.
Study of dose-response: One hours before the exposure to aerosol histamine, animals were randomized into groups (n=8, equal sex), and Nublized R-bambuterol hydrochloride or bambuterol hydrochloride in doses of 63, 126, 252 and 504 μg/kg, and vehicle control were inhaled by the animals via a mouth and nasal mask. The numbers of collapsed animal as a result of asthmatic reaction to aerosol histamine were counted, and the latency times were recorded. Both of these parameters were used as quantitative measurements of the protective effects of the treatments on bronchospasm evoked by aerosol histamine.

[2] = test system: histamine evoked asthma in conscious guinea-pigs; experiment: Histamine-evoked asthma in conscious guinea pigs after oral administration; format: in vivo, guinea pigs (Dunkin-Hartley strain); conditions: for Latency: no collapse over 360 sec recorded as 360
Protocol: as §1
Comparison of the anti-asthma effects of R-bambuterol (R-BM) and bambuterol (RS-BM) administered by oral and by inhalation in conscious guinea pigs. Test methods: same as Example 1.
Study of dose-response: Same as Example 1, except the following: four hours before the exposure to aerosol histamine, animals were randomized into groups (n=8, equal male and female), and given R-bambuterol hydrochloride or racemic bambuterol hydrochloride in doses of 1.0, 2.0, 4.0 and 8.0 mg/kg, and vehicle control, orally via a stomach tube.

[3] = test system: histamine evoked asthma in conscious guinea-pigs; experiment: Time course of anti-asthma effects after oral administration or inhalation; format: in vivo; conditions: for No. of collapsed: n=8
Protocol: The time course of the anti-asthma effects of R-bambuterol (R-BM) and bambuterol (RS-BM) after administered by oral and by inhalation. Test Methods: same as example 1 except the following:
For orally administration, R-Bambuterol hydrochloride or racemic bambuterol hydrochloride at 4 and 8 mg/kg, and vehicle alone, were administered to the guinea pigs orally via a stomach tube. Exposure of treated animals to aerosol histamine (as above) was done at 1, 4 and 12 hours after R-bambuterol or bambuterol treatment. For each experimental group, there were a total of 8 animals with equal number in sex, and no repeated exposure was made for individual experimental animals.
For inhalation, R-Bambuterol hydrochloride or racemic bambuterol hydrochloride at 0.252 and 0.504 mg/kg, and vehicle alone, were nebulized and administered to the guinea pigs by inhalation. Exposure of drug treated animals to aerosol histamine (as above) was done at 1,4 and 12 hours after drug treatment. For each experimental group, there were a total of 8 animals with equal number in sex, and no repeated exposure was made for individual experimental animals.

[4] = test system: OVA evoked asthma in sensitized guinea pigs; experiment: Airway resistance in OVA asthma attack after oral administration in sensitized guinea pigs; format: in vivo
Protocol: Sensitized animals were divided into Saline (control), S-Bambuterol and R-bambuterol groups. R or S bambuterol were administered by both inhalation by oral ([…]). Airway resistance (Raw) and dynamic pulmonary compliance (Cdyn) were measured at resting or during astham challenge by OVA. Animal preparation and experimental methods were similar as described previously.

[5] = test system: OVA evoked asthma in sensitized guinea pigs; experiment: Drug tolerance to R-bambuterol induced by pretreatment; format: in vivo; conditions: for Changes in Cdyn During asthma / Changes in Raw During asthma: OVA challenge, n=8
Protocol: Animal sensitization and experiment methods were similar as discribed above. Briefly, animals were divided into three groups. R-bambuterol (8 mg/kg) or S-bamburerol (8 mg/kg) or 0.9% NaCL (control) were given orally in equal volum to each group seperatedly once a day for 7 consecutive days in order to induce drug tolerances. The Protection effects of same dosage of R-bambuterol against asthma attack induced by OVA challenge were evaluated by the changes of Airway resistance (Raw) and dynamic pulmonary compliance (Cdyn).

[6] = test system: OVA evoked asthma in sensitized guinea-pigs; experiment: Relief of antigen-evoked asthma by inhalation after challenge in OVA sensitized guinea-pigs; format: in vivo; conditions: nebulized drug inhaled after antigen challenge
Excerpt: In an embodiment of the invention, the ovalbumin (OVA) sensitized guinea-pigs were first challenged with nebulized antigen to evoke asthma, then the animals were allowed to inhale nebulized R-bambuterol or bambuterol. […] In a further embodiment of the invention, the sensitized guinea-pigs were first pretreated with nebulized R-bambuterol or bambuterol by inhalation. After three minutes, the same animals were challenged with nebulized antigen. […] The fast onset of action in the invention can also not be explained by Svenssion's in vitro metabolic study noted above that the dominate product is mono-carbamate bambuterol and litter terbutaline at initial phase., while the major amount of terbutaline will be formed at much later phase. (Svensson et al., 1988).

[7] = test system: OVA evoked asthma in sensitized guinea pigs; experiment: Airway resistance and dynamic pulmonary compliance after inhalation in OVA sensitized guinea pigs; format: in vivo; conditions: n=8
[8] = inhale, at maximum effective dose (R-BM 0.252, RS-BM 0.505 mg/Kg)
[9] = oral, at maximum effective dose (R-BM 4.0, RS-BM 8.0 mg/Kg)
[10] = inhalation (R-BM 252 μg/kg, RS-BM 504 μg/kg), histamine 60 min after
[11] = inhalation (R-BM 252 μg/kg, RS-BM 504 μg/kg), histamine 240 min after
[12] = inhalation (R-BM 252 μg/kg, RS-BM 504 μg/kg), histamine 720 min after
[13] = oral (R-BM 4.0 mg/kg, RS-BM 8.0 mg/kg), histamine 60 min after
[14] = oral (R-BM 4.0 mg/kg, RS-BM 8.0 mg/kg), histamine 240 min after
[15] = oral (R-BM 4.0 mg/kg, RS-BM 8.0 mg/kg), histamine 720 min after
[16] = pretreated with the labelled substance 8 mg/kg orally once a day 7 days, then R-bambuterol
[17] = saline pretreated group, protection by R-bambuterol
[18] = R-BM inhaled 504 μg/kg, OVA challenge
[19] = after R-BM inhaled 504 μg/kg, before OVA challenge

CN(C)C(=O)Oc1cc(OC(=O)N(C)C)cc([C@@H](O)CNC(C)(C)C)c1 [R-bambuterol]
dosage required for maximum anti-asthmatic effects (complete protection against histamine) by inhalation ([1]; inhalation): 256 µg/kg
maximum effective dose required by inhalation ([1]; inhale): Inhale (0.252) mg/Kg
Animal collapsed (%) [1, 8]: 0%
Animal collapsed (number/group) [1, 8]: 0/8
Latency ([1]; inhaled 63 μg/Kg): 95 ± 108 s
Latency ([1]; inhaled 126 μg/Kg): 243 ± 161 s
Latency ([1]; inhaled 252 μg/Kg): 360 ± 0 s
Latency ([1]; inhaled 504 μg/Kg): 360 ± 0 s
potency relative to bambuterol ([1]; inhaled aerosols, histamine evoked asthma): about twice
Oral:Inhale ratio of maximum effective dose ([1]; oral dose vs inhaled dose for maximum anti-asthmatic effect, listed as R-bamubuterol): 16
maximum effective dose required by oral (none of the histamine challenged animals collapsed) ([2]; oral): 4 mg/kg
Latency ([2]; oral 1.0 mg/Kg): 179 ± 151 s
Latency ([2]; oral 2.0 mg/Kg): 295 ± 121 s
(Collapsed)/No. in group ([2]; oral 4.0 mg/Kg, four hours before aerosol histamine, n=8): 0/8**^▴▴
Latency ([2]; oral 4.0 mg/Kg): 360 ± 0 s
Latency ([2]; oral 8.0 mg/Kg): 360 ± 0 s
Animal collapsed (%) [2, 9]: 0%
Animal collapsed (number/group) [2, 9]: 0/8
maximum effective dose required by oral (none of the histamine challenged animals collapsed) ([2]; oral, listed as R-BM): Oral (4.0) mg/Kg
Latency [3, 10]: 360 ± 0 s
No. of collapsed [3, 10]: 0/8
Latency [3, 11]: 360 ± 0 s
No. of collapsed [3, 11]: 0/8
Latency [3, 12]: 330 ± 84 s
No. of collapsed [3, 12]: 1/8
maximum anti-asthmatic effects by inhalation faster than by oral administration ([3]; inhalation vs oral): 4 h
Latency [3, 13]: 258 ± 141 s
No. of collapsed [3, 13]: 3/8
Latency [3, 14]: 360 ± 0 s
No. of collapsed [3, 14]: 0/8
Latency [3, 15]: 285 ± 129 s
No. of collapsed [3, 15]: 2/8
change in Raw / asthmatic response during the asthmatic attack by OVA ([4]; oral): little changes in Raw
Changes in Airway resistance (Raw) at 4th min after OVA challenge ([4]; pretreated oral 4 m/kg, n=8): 0.14 ± 0.13
Changes in Airway resistance (Raw) at 5th min after OVA challenge ([4]; pretreated oral 4 m/kg, n=8): 0.11 ± 0.08
protection effects of R-bambuterol against asthmatic attack after pretreatment ([5]; group pretreated with the labelled substance): less than control but no significant differences
Changes in Cdyn During asthma [5, 16]: −0.11 ± 0.08
Changes in Raw During asthma [5, 16]: +0.13 ± 0.09
protection against asthma attack in control group ([5]; saline pretreated control group): fully protect against asthma attack
Changes in Cdyn During asthma [5, 17]: −0.08 ± 0.06^•
Changes in Raw During asthma [5, 17]: +0.09 ± 0.03^•
relief of asthmatic symptoms after inhalation [6]: immediately relieved within matter of tenths of seconds to a couple of minutes
Cdyn (dynamic pulmonary compliance) [7, 18]: 0.62 ± 0.02
Raw (airway resistance) [7, 18]: 11.51 ± 1.09
Cdyn (dynamic pulmonary compliance) [7, 19]: 0.70 ± 0.03
Raw (airway resistance) [7, 19]: 10.91 ± 0.41
